Values after ≈ are worked out from the molar mass of the structure shown. Read-outs that look alike come from different tables or passages of the source.
How the values were obtained:
HIV-1 (RF) in MT-2 cells = assay: microbe, parasite or virus in culture; format: cell-based
Procedure, shortened: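 HIV-1 laboratory strains (RF, MN, IIIB) grown in H9 cells in RPMI 1640 with 5% FCS; infections in MT-2 cells. Viral RNA quantified by hybridization with biotinylated gag/pol capture probes on streptavidin plates and alkaline phosphatase-conjugated reporter probes; BH10 gag-pol in vitro transcripts serve as RNA standards.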

[1] = target: single-chain tethered dimer of HIV protease (Human immunodeficiency virus 1, UniProt P04585); assay: biochemical; format: biochemical; parameters: fused on or other part: A second copy of the same protease unit is joined to the first by a short peptide tether, giving one polypeptide
[2] = Human immunodeficiency virus 1, MT2, 48 h, Table 2d, class symbols, read-out: IC90
[3] = read-out: HPLC K1, Table 2d, class symbols
[4] = Human immunodeficiency virus 1, MT2, 48 h, Table 2d, HIV RNA assay, read-out: IC90
[5] = read-out: HPLC K1, Table 2d, HIV protease inhibition, HPLC method
[6] = Human immunodeficiency virus 1, MT2, Table 2m, read-out: IC90

Row | Structure (SMILES) | IC90 (HIV-1 (RF) in MT-2 cells; [2]) [µg/mL] | Ki [1, 3] [nM] | melting point | IC90 (HIV-1 (RF) in MT-2 cells; [4]) [µg/mL] | Ki [1, 5] [nM] | IC90 (HIV-1 (RF) in MT-2 cells; [6]) [µg/mL] | Ki ([1]; read-out: HPLC Ki, Table 2m) [nM] | IC90 (HIV-1 (RF) in MT-2 cells; Human immunodeficiency virus 1, MT2, 48 h) [µg/mL]
1 | O=C1N(Cc2ccc(CO)cc2)C(Cc2ccccc2)C(O)C(O)C(Cc2ccccc2)N1Cc1cccc(O)c1 (stereo not drawn) [10o] | < 10 | < 10 | 141 to 144 °C |  |  |  |  | 
2 | N=C(N)c1cccc(CN2C(=O)N(Cc3cccc(C(=N)N)c3)C(Cc3ccccc3)C(O)C(O)C2Cc2ccccc2)c1 (stereo not drawn) [11A] | > 100 | 10 to 1000 | 224 to 226 °C |  |  |  |  | 
3 | CNC(=O)c1cccc(CN2C(=O)N(Cc3cccc(C(=O)OC)c3)C(Cc3ccccc3)C(O)C(O)C2Cc2ccccc2)c1 (stereo not drawn) [11G] | < 10 | < 10 | 158 to 161 °C |  |  |  |  | 
4 | O=C1N(Cc2ccccc2)C(Cc2ccccc2)C(O)C(O)C(Cc2ccccc2)N1Cc1cccc(O)c1 (stereo not drawn) [11I] | < 10 | < 10 | 189 to 193 °C |  |  |  |  | 
5 | CNC(=O)c1cccc(CN2C(=O)N(Cc3cccc(CO)c3)C(Cc3ccccc3)C(O)C(O)C2Cc2ccccc2)c1 (stereo not drawn) [11M] | < 10 | < 10 | 107 to 109 °C |  |  |  |  | 
6 | Nc1cccc(CN2C(=O)N(Cc3cccc(O)c3)C(Cc3ccccc3)C(O)C(O)C2Cc2ccccc2)c1 (stereo not drawn) [11Q] | < 10 | < 10 | 116 to 120 °C |  |  |  |  | 
7 | CCNC(=O)c1cccc(CN2C(=O)N(Cc3cccc(C(=O)NCC)c3)C(Cc3ccccc3)C(O)C(O)C2Cc2ccccc2)c1 (stereo not drawn) [11R] | < 10 | < 10 | 135 to 138 °C |  |  |  |  | 
8 | NC(=NO)c1cccc(CN2C(=O)N(CC3CC3)C(Cc3ccccc3)C(O)C(O)C2Cc2ccccc2)c1 (stereo not drawn) [15AF] |  |  | 183 to 186 °C | < 10 | < 10 |  |  | 
9 | O=C1N(Cc2ccc(O)c(O)c2)C(Cc2ccccc2)C(O)C(O)C(Cc2ccccc2)N1CC1CC1 (stereo not drawn) [15AG] |  |  | 141 °C | < 10 | < 10 |  |  | 
10 | NC(=NO)c1cccc(CN2C(=O)N(Cc3ccc(CO)cc3)C(Cc3ccccc3)C(O)C(O)C2Cc2ccccc2)c1 (stereo not drawn) [15AH] |  |  | 198 to 199 °C | < 10 | < 10 |  |  | 
11 | NC(=NO)c1ccc(CN2C(=O)N(Cc3ccc(CO)cc3)C(Cc3ccccc3)C(O)C(O)C2Cc2ccccc2)cc1 (stereo not drawn) [15AI] |  |  | 215 °C | < 10 | 10 to 1000 |  |  | 
12 | NC(=NO)c1cccc(CN2C(=O)N(Cc3ccc4ccccc4c3)C(Cc3ccccc3)C(O)C(O)C2Cc2ccccc2)c1 (stereo not drawn) [15AN] |  |  | 192 to 193 °C | < 10 | < 10 |  |  | 
13 | NC(=NO)c1cccc(CN2C(=O)NC(Cc3ccccc3)C(O)C(O)C2Cc2ccccc2)c1 (stereo not drawn) [15AT] |  |  | 172 to 179 °C | < 10 | < 10 |  |  | 
14 | NC(=NO)c1cccc(CN2C(=O)N(Cc3ccc(O)cc3)C(Cc3ccccc3)C(O)C(O)C2Cc2ccccc2)c1 (stereo not drawn) [15AU] |  |  | 195 to 197 °C | < 10 | < 10 |  |  | 
15 | O=C1N(Cc2cccc(NS(=O)(=O)C(F)(F)F)c2)C(Cc2ccccc2)C(O)C(O)C(Cc2ccccc2)N1Cc1cccc(NS(=O)(=O)C(F)(F)F)c1 (stereo not drawn) [15B] | 10 to 100 (≈ 12.5 to 125 µM) | < 10 | 141.8 °C |  |  |  |  | 
16 | Nc1ccc(CN2C(=O)N(Cc3ccc(N)cc3)C(Cc3ccccc3)C(O)C(O)C2Cc2ccccc2)cc1 (stereo not drawn) [15CQ] |  |  | 114 to 116 °C | < 10 | < 10 |  |  | 
17 | O=C1N(Cc2ccc3[nH]ncc3c2)C(Cc2ccccc2)C(O)C(O)C(Cc2ccccc2)N1Cc1ccc2[nH]ncc2c1 (stereo not drawn) [15CX] |  |  | 165 to 170 °C | < 10 | < 10 |  |  | 
18 | O=C1N(Cc2ccc3cn[nH]c3c2)C(Cc2ccccc2)C(O)C(O)C(Cc2ccccc2)N1Cc1ccc2cn[nH]c2c1 (stereo not drawn) [15CY] |  |  | 170 to 175 °C | < 10 | < 10 |  |  | 
19 | O=C1Nc2ccc(CN3C(=O)N(Cc4ccc5c(c4)C(=O)C(=O)N5)C(Cc4ccccc4)C(O)C(O)C3Cc3ccccc3)cc2C1=O (stereo not drawn) [15DA] |  |  | 196 to 200 °C | < 10 | < 10 |  |  | 
20 | O=C1N(Cc2ccc3[nH]ccc3c2)C(Cc2ccccc2)C(O)C(O)C(Cc2ccccc2)N1Cc1ccc2[nH]ccc2c1 (stereo not drawn) [15DE] |  |  | 170 °C (dec.) | < 10 | < 10 |  |  | 
21 | CNc1cccc(CN2C(=O)N(Cc3cccc(NC)c3)C(Cc3ccccc3)C(O)C(O)C2Cc2ccccc2)c1 (stereo not drawn) [15D] | < 10 | < 10 | 180.3 °C |  |  |  |  | 
22 | O=C(Nc1cccc(CN2C(=O)N(Cc3cccc(NC(=O)OCc4ccccc4)c3)C(Cc3ccccc3)C(O)C(O)C2Cc2ccccc2)c1)OCc1ccccc1 (stereo not drawn) [15E] | > 100 | 10 to 1000 | 190.7 °C |  |  |  |  | 
23 | CN(C=O)c1cccc(CN2C(=O)N(Cc3cccc(N(C)C=O)c3)C(Cc3ccccc3)C(O)C(O)C2Cc2ccccc2)c1 (stereo not drawn) [15F] | < 10 | 10 to 1000 | 82 °C |  |  |  |  | 

Row | Structure (SMILES) | IC90 (HIV-1 (RF) in MT-2 cells; [2]) [µg/mL] | Ki [1, 3] [nM] | melting point | IC90 (HIV-1 (RF) in MT-2 cells; [4]) [µg/mL] | Ki [1, 5] [nM] | IC90 (HIV-1 (RF) in MT-2 cells; [6]) [µg/mL] | Ki ([1]; read-out: HPLC Ki, Table 2m) [nM] | IC90 (HIV-1 (RF) in MT-2 cells; Human immunodeficiency virus 1, MT2, 48 h) [µg/mL]
24 | CN(C)c1cccc(CN2C(=O)N(Cc3cccc(N(C)C)c3)C(Cc3ccccc3)C(O)C(O)C2Cc2ccccc2)c1 (stereo not drawn) [15I] | < 10 | < 10 | 199.9 °C |  |  |  |  | 
25 | O=C1N(Cc2ccc(CO)cc2)C(Cc2ccccc2)C(O)C(O)C(Cc2ccccc2)N1Cc1cccc([N+](=O)[O-])c1 (stereo not drawn) [15J] | < 10 | < 10 | 92 °C |  |  |  |  | 
26 | CCC(O)CN1C(=O)N(CC(O)CC)C(Cc2ccccc2)C(O)C(O)C1Cc1ccccc1 (stereo not drawn) [15VN] | > 50 | > 1000 | 99.2 °C |  |  |  |  | 
27 | CCN(CC)C(=O)c1cccc(CN2C(=O)N(Cc3cccc(C(=O)N(CC)CC)c3)C(Cc3ccccc3)C(O)C(O)C2Cc2ccccc2)c1 (stereo not drawn) [15WF] | < 10 | < 10 | 89 to 91 °C |  |  |  |  | 
28 | O=C1NC(Cc2ccccc2)C(O)C(O)C(Cc2ccccc2)N1Cc1cccc(CO)c1 (stereo not drawn) [15WI] | < 10 | < 10 | 176 to 177 °C |  |  |  |  | 
29 | CCN(CC)C(=O)c1cccc(CN2C(=O)N(Cc3cccc(CO)c3)C(Cc3ccccc3)C(O)C(O)C2Cc2ccccc2)c1 (stereo not drawn) [15WJ] | < 10 | < 10 | 88.9 to 90 °C |  |  |  |  | 
30 | CC(C)NC(=O)c1cccc(CN2C(=O)N(Cc3cccc(C(=O)O)c3)C(Cc3ccccc3)C(O)C(O)C2Cc2ccccc2)c1 (stereo not drawn) [15WN] | < 10 | < 10 | 164 to 167 °C |  |  |  |  | 
31 | CCCNC(=O)c1cccc(CN2C(=O)N(Cc3cccc(C(=O)O)c3)C(Cc3ccccc3)C(O)C(O)C2Cc2ccccc2)c1 (stereo not drawn) [15WO] | < 10 | < 10 | 151 to 153 °C |  |  |  |  | 
32 | O=C(O)c1cccc(CN2C(=O)N(Cc3ccccc3)C(Cc3ccccc3)C(O)C(O)C2Cc2ccccc2)c1 (stereo not drawn) [15WP] | < 10 | < 10 | 122 to 124 °C |  |  |  |  | 
33 | O=C(O)c1cccc(CN2C(=O)N(CC3CC3)C(Cc3ccccc3)C(O)C(O)C2Cc2ccccc2)c1 (stereo not drawn) [15WQ] | < 10 | < 10 | 135 to 137 °C |  |  |  |  | 
34 | O=C(O)c1cccc(CN2C(=O)N(Cc3ccc(CO)cc3)C(Cc3ccccc3)C(O)C(O)C2Cc2ccccc2)c1 (stereo not drawn) [15WR] | < 10 | < 10 | 130 to 132 °C |  |  |  |  | 
35 | NC(=O)c1cccc(CN2C(=O)N(Cc3ccc(CO)cc3)C(Cc3ccccc3)C(O)C(O)C2Cc2ccccc2)c1 (stereo not drawn) [15WT] | < 10 | < 10 | 123 to 124 °C |  |  |  |  | 
36 | NC(=O)c1cccc(CN2C(=O)N(CC3CC3)C(Cc3ccccc3)C(O)C(O)C2Cc2ccccc2)c1 (stereo not drawn) [15WV] | < 10 | < 10 | 128 to 130 °C |  |  |  |  | 
37 | NC(=O)c1cccc(CN2C(=O)NC(Cc3ccccc3)C(O)C(O)C2Cc2ccccc2)c1 (stereo not drawn) [15WW] | < 10 | < 10 | 114 to 116 °C |  |  |  |  | 
38 | CNc1cccc(CN2C(=O)N(Cc3ccc4ccccc4c3)C(Cc3ccccc3)C(O)C(O)C2Cc2ccccc2)c1 (stereo not drawn) [15WZ] | < 10 | < 10 | 98 to 100 °C |  |  |  |  | 
39 | O=S1(=O)N(Cc2ccc(CO)cc2)C(Cc2ccccc2)C(O)C(O)C(Cc2ccccc2)N1Cc1ccc(CO)cc1 (stereo not drawn) [23B] |  |  | 189 to 190 °C |  |  | < 10 | < 10 | 
40 | O=[N+]([O-])c1cccc(CN2C(Cc3ccccc3)C(O)C(O)C(Cc3ccccc3)N(Cc3cccc([N+](=O)[O-])c3)S2(=O)=O)c1 (stereo not drawn) [23L] |  |  | 196 to 198 °C |  |  | < 10 | 10 to 1000 | 
41 | O=C1N(Cc2cccc(C=NO)c2)C(Cc2ccccc2)C(O)C(O)C(Cc2ccccc2)N1Cc1cccc(CNO)c1 (stereo not drawn) [Example 9A] | < 10 | 10 to 1000 | 214 to 216 °C |  |  |  |  | 
42 | O=C1N(Cc2cccc(C=NOCc3ccccc3)c2)C(Cc2ccccc2)C(O)C(O)C(Cc2ccccc2)N1Cc1cccc(C=NOCc2ccccc2)c1 (stereo not drawn) [Example 9D] | 10 to 100 (≈ 12.9 to 129 µM) | 10 to 1000 | 170.5 to 171 °C |  |  |  |  | 
43 | COC(=O)Oc1cccc(CN2C(=O)N(Cc3cccc(OC(=O)OC)c3)C(Cc3ccccc3)C(O)C(O)C2Cc2ccccc2)c1 (stereo not drawn) [Example 9G] | < 10 | 10 to 1000 | 146 to 147 °C |  |  |  |  | 
44 | O=C(NCc1ccccc1)Oc1cccc(CN2C(=O)N(Cc3cccc(OC(=O)NCc4ccccc4)c3)C(Cc3ccccc3)C(O)C(O)C2Cc2ccccc2)c1 (stereo not drawn) [Example 9L] | < 10 | 10 to 1000 | 150 °C (dec.) |  |  |  |  | 
45 | CNC(=O)Oc1cccc(CN2C(=O)N(Cc3cccc(OC(=O)NC)c3)C(Cc3ccccc3)C(O)C(O)C2Cc2ccccc2)c1 (stereo not drawn) [Example 9M] |  | 10 to 1000 | 150 °C (dec.) |  |  |  |  | < 10

From patent publication USRE37781E1, “Substituted cyclic carbonyls and derivatives thereof useful as retroviral protease inhibitors” (DuPont Pharmaceuticals Company, priority 1991, dated 2002)
